Data from article PMC12752627, “Discovery of a Potent and Selective TEAD Degrader with Durable Degradation Activity” (Advanced Science, 2025).

Key:
[1] = biological target: TEAD1 (Homo sapiens, UniProt P28347); experiment: Immunoblot in wild-type / CRBN-knockout HEK293T cells and rescue experiment; type: cell-based; set-up: endogenous in cells; host or cells: HEK293T wild-type and CRBN-knockout; conditions: HEK293T cells, 1 h pretreatment
Method: (§1) Immunoblotting was carried out as previously described.^[ [29] ^] Cells were seeded in 6‐well plates (Yeasen, #84011ES50) at a density of 1 million cells per well. The following day, cells were treated with compounds at the required concentrations, with the DMSO concentration kept below 0.4‰ to prevent toxic effects on the cells. The collected cell pellets were washed three times with PBS (Meilunbio, #MA0015) and resuspended in 120 µL of RIPA lysis buffer (Meilunbio, #MA0151) containing 1% protease inhibitor (Meilunbio, #MB2678‐2). The cells were then sonicated on ice and centrifuged at 12 000 rpm for 15 min at 4 °C to remove cellular debris. Protein concentrations were determined using the BCA Protein Quantification Kit (Meilunbio, #MA0082‐1). The protein samples were normalized, boiled at 99 °C for 10 min, and then subjected to electrophoresis on a 10% SDS‐PAGE gel. The separated protein bands were transferred to nitrocellulose membranes, blocked with TBST containing 5% BSA, and incubated with the indicated primary antibodies. Finally, the blots were imaged using an Amersham Typhoon NIR imager.

[2] = biological target: CRBN-DDB1 (Homo sapiens, UniProt Q96SW2); experiment: CRBN binding assay, biochemical (HTRF); conditions: recombinant CRBN-DDB1, 1 h, read-out: Biochemical CRBN Binary Binding IC50 (nM ± SD)
Sequence of CRBN-DDB1 (Q96SW2 whole entry): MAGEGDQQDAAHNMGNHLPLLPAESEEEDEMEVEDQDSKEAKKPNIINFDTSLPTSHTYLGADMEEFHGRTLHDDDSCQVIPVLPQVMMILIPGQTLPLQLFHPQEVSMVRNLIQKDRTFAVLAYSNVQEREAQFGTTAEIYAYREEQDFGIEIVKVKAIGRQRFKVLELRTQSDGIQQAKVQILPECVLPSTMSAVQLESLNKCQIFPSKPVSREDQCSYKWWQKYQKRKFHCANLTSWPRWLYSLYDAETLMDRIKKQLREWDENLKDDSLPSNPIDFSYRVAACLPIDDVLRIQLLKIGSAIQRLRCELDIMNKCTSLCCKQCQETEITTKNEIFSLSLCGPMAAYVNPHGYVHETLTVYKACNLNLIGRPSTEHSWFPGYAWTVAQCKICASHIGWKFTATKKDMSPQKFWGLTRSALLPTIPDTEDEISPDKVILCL
Method: Next, 400 nL of compound solution (initial concentration 10 µM, followed by a three‐fold gradient dilution) was dispensed into the wells using the positive‐pressure‐based I‐DOT dispenser. After 1 h of incubation at room temperature, the HTRF signal was measured using an Envision plate reader (Revvity). Finally, the data were analyzed using non‐linear regression curves in GraphPad Prism 9.5 software.

[3] = biological target: T1, CRBN (Homo sapiens, UniProt Q96SW2); experiment: Intracellular CRBN binding in NanoLuc-CRBN-overexpressing HEK293T cells; type: cell-based; conditions: read-out: Cellular CRBN Binding IC50 (nM ± SD)
T1 construct: expressed in transfected cells; host or cells: HEK293T
T1 sequence (Q96SW2 whole entry): as above
Method: NanoLuc‐CRBN‐overexpressing HEK293T were seeded in 96‐well plates at a density of 2000 per well. The following day, compounds was added to the plate starting from 10 µM for a 3‐fold gradient dilution and incubated for 2 h. […] Finally, the signal was measured using an Envision plate reader (Revvity) and the data were analyzed using the GraphPad Prism 9.5 software.

[4] = system: A172 cells; experiment: Cell viability assay (CTG, 72 h) A172; type: cell-based; conditions: 3-day compound treatment
Method: (§2) Cells were seeded at a density of 1000 cells per well in 96‐well flat‐bottomed cell culture plates and cultured overnight at 37 °C with 5% CO2 to allow for cell attachment. The following day, different concentrations of compounds were added using an I‐DOT dispenser. After 72 h, 25 µL of CellTiter‐Meiluncell Luminescent Cell Viability Reagent (Meilunbio, #PWL111‐2) was added and incubated for 15 min at room temperature. Luminescence signals were then measured using an Envision plate reader (Revvity). Data were analyzed using GraphPad Prism 9.5 software.^[ [30] ^]

[5] = system: KLE cells; experiment: Cell viability assay (CTG, 72 h) KLE; type: cell-based; conditions: 3-day compound treatment
Method: as §2

[6] = system: HOS cells; experiment: Cell viability assay (CTG, 72 h) HOS; type: cell-based; conditions: 3-day compound treatment
Method: as §2

[7] = system: ES2 cells; experiment: Cell viability assay (CTG, 72 h) ES2; type: cell-based; conditions: 3-day compound treatment
Method: as §2

[8] = system: 867 cancer cell lines; experiment: PRISM assay (barcoded cell line screening, 5 days); type: cell-based;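 also: top test concentration 10 mM in eight-point dilution series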
Method: The principle of the PRISM assay has been described elsewhere and was conducted as previously outlined by the PRISM team at the Broad Institute.^[ [14], [31] ^] In PRISM (MTS027) experiments, KG‐FP‐003 was tested across 867 different cancer cell lines. Cells were treated with eight concentration gradients, ranging from 4.6 nM to […], in triplicate dilutions over a period of five days. Each plate was treated with 20 µM bortezomib as a positive control and DMSO as a negative control. Three replicate experiments were performed for each compound. The resulting data were analyzed using GraphPad PRISM 9.5.

[9] = biological target: T2, TEAD1 (Homo sapiens, UniProt P28347+Q96SW2); experiment: Immunoblot of TEAD1 degradation in TEAD1-mNeonGreen fusion NCI-H1299 cells; type: cell-based; conditions: 10 nM, 6 h, TEAD1-mNeonGreen NCI-H1299 cells
T2 construct: endogenous in cells; host or cells: NCI-H1299 (TEAD1-mNeonGreen knock-in)
T2 sequence (P28347 whole entry, the tested form may be a part): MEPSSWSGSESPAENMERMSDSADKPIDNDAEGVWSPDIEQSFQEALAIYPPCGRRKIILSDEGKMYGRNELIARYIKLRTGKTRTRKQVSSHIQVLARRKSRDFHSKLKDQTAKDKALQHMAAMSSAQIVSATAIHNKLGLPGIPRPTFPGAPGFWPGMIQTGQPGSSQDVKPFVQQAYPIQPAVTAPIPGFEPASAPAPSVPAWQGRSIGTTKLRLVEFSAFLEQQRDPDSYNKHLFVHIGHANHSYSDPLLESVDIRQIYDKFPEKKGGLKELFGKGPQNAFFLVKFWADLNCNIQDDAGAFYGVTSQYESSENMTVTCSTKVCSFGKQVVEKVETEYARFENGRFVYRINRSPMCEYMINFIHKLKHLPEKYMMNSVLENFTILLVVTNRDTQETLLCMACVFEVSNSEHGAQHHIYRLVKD
T2 sequence (Q96SW2 whole entry, the tested form may be a part): as the sequence (Q96SW2 whole entry) above
T2 sequence (Q16531 2-1140 partner limits assumed): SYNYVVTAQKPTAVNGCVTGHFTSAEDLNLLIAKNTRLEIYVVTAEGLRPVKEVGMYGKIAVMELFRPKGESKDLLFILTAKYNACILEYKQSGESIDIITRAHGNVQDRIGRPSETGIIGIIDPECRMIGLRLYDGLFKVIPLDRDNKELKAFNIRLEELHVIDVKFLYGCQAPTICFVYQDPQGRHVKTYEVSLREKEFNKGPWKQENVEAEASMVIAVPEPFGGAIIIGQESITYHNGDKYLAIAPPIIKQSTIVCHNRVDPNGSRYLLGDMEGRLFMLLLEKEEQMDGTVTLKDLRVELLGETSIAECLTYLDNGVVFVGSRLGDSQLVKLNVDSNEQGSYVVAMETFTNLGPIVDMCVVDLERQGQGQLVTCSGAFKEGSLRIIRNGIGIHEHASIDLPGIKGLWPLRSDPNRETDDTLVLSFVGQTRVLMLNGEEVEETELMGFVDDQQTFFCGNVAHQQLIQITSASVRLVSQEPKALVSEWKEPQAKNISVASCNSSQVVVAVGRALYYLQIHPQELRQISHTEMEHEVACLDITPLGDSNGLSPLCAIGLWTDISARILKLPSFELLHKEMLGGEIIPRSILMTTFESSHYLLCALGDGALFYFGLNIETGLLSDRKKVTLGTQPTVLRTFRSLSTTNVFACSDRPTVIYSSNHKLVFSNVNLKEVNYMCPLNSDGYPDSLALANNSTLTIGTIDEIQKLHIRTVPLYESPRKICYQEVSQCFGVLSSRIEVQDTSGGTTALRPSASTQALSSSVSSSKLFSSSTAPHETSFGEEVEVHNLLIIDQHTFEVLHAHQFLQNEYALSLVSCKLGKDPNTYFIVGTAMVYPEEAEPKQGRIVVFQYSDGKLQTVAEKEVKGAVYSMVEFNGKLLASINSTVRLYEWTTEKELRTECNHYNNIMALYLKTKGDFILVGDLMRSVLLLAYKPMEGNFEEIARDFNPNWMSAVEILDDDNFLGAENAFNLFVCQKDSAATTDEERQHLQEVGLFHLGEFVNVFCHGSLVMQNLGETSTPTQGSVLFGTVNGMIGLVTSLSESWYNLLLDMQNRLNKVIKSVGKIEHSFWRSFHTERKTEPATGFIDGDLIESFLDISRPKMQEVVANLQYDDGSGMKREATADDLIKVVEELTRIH
Method: as §1

Sequence of TEAD1 (Homo sapiens, UniProt P28347) (P28347 whole entry): as the sequence (P28347 whole entry, the tested form may be a part) above

Compound	Rescue: effect of pretreatment on KG-FP-003-mediated TEAD1 degradation [1]	IC50 [2] [nM]	IC50 [3] [nM]	other results
Nc1cccc2c1CN(C1CCC(=O)NC1=O)C2=O (stereo not drawn) [Lenalidomide, lenalidomide]	effectively blocked	–	–	–
CNC(=O)c1cc2c(c(F)c1-c1c(Cl)c(F)cc3c1C[C@@](CN[C@H]1CC[C@H](C(=O)NCCCCC(=O)Nc4ccc(C)c(N5CCC(=O)NC5=O)c4)CC1)(c1ccccc1)O3)[C@@H](O)[C@@H](C)C2 [KG-FP-010]	–	474 ± 14	1700 ± 384	–
NS(=O)(=O)OC[C@@H]1C[C@@H](n2ccc3c(N[C@H]4CCc5ccccc54)ncnc32)C[C@@H]1O [MLN4924]	effectively blocked	–	–	–
CC(C)C[C@H](NC(=O)[C@H](Cc1ccccc1)NC(=O)c1cnccn1)B(O)O [bortezomib]	effectively blocked	–	–	–
CNC(=O)c1cc2c(c(F)c1-c1c(Cl)c(F)cc3c1C[C@@](CNC(=O)CCCCC(=O)Nc1ccc4c(c1)C(=O)N(C1CCC(=O)NC1=O)C4=O)(c1ccccc1)O3)[C@@H](O)[C@@H](C)C2 (stereo partly drawn) [KG-FP-008]	–	126 ± 47	426 ± 176	–
C=C(F)C(=O)N1C[C@@H](Nc2ncccn2)[C@H](OCc2ccc(C(F)(F)F)cc2)C1 [MYF-03-176, reference compound]	–	–	–	IC50 [4]: > 3000 nM; IC50 [5]: 1410 ± 479 nM; IC50 [6]: 922 ± 404 nM; IC50 [7]: > 2000 nM; PRISM AUC ([8]; Cell line: A172, 5 days): 0.59; PRISM AUC ([8]; Cell line: ES2, 5 days): 1.00; PRISM AUC ([8]; Cell line: HOS, 5 days): 0.90; PRISM AUC ([8]; Cell line: KLE, 5 days): 1.00
CNC(=O)c1cc2c(c(F)c1-c1c(Cl)c(F)cc3c1C[C@@](CN[C@H]1CC[C@H](C(=O)N4CCC(CC5CCN(C(=O)COc6ccc7c(c6)C(=O)N(C6CCC(=O)NC6=O)C7=O)CC5)CC4)CC1)(c1ccccc1)O3)[C@@H](O)[C@@H](C)C2 (stereo partly drawn) [KG-FP-009]	–	152 ± 12	1380 ± 794	Target degradation by immunoblot [9]: significant target degradation
